Measurements published in PubChem BioAssay AID248 (DTP/NCI, 2004).
“And” between values parts separate entries of the source, which are not always exact repeats. Identical values can stand only once. Toxic doses and inconclusive results are not listed. No stated cut-off is given here; in the data, active means T/C of 150% or more; inactive means T/C below 125%.

Test system: L1210 leukemia ip in BDF1 mice, survival T/C
Assay: NCI In Vivo Anticancer Drug Screen. Data for tumor model L1210 Leukemia (intraperitoneal) in B6D2F1 (BDF1) mice
Details: endpoint: mean survival time, higher = longer survival
Outline: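 Ratio derived from survival: compound-dosed mice over vehicle-dosed mice, all bearing a transplantable tumor.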

[1] = dose: 100.0 mg/kg/injection, schedule: Q01DX001 (ip), vehicle: saline
[2] = dose: 200.0 mg/kg/injection, schedule: Q01DX001 (ip), vehicle: saline
[3] = dose: 400.0 mg/kg/injection, schedule: Q01DX001 (ip), vehicle: saline
[4] = dose: 50.0 mg/kg/injection, schedule: Q01DX009 (ip), vehicle: Klucel (hydroxypropylcellulose) (HPC)
[5] = dose: 100.0 mg/kg/injection, schedule: Q01DX009 (ip), vehicle: Klucel (hydroxypropylcellulose) (HPC)
[6] = dose: 100.0 mg/kg/injection, schedule: Q04DX003 (ip), vehicle: Klucel (hydroxypropylcellulose) (HPC)
[7] = dose: 200.0 mg/kg/injection, schedule: Q01DX009 (ip), vehicle: Klucel (hydroxypropylcellulose) (HPC)
[8] = dose: 200.0 mg/kg/injection, schedule: Q04DX003 (ip), vehicle: Klucel (hydroxypropylcellulose) (HPC)
[9] = dose: 400.0 mg/kg/injection, schedule: Q04DX003 (ip), vehicle: Klucel (hydroxypropylcellulose) (HPC)
[10] = dose: 100.0 mg/kg/injection, schedule: Q04DX002 (ip), vehicle: Klucel (hydroxypropylcellulose) (HPC)
[11] = dose: 200.0 mg/kg/injection, schedule: Q04DX002 (ip), vehicle: Klucel (hydroxypropylcellulose) (HPC)
[12] = dose: 400.0 mg/kg/injection, schedule: Q01DX009 (ip), vehicle: Klucel (hydroxypropylcellulose) (HPC)
[13] = dose: 400.0 mg/kg/injection, schedule: Q04DX002 (ip), vehicle: Klucel (hydroxypropylcellulose) (HPC)

Measured: T/C

CC(=O)Nc1nc2c(ncn2C2OCC(OC(C)=O)C(OC(C)=O)C2OC(C)=O)c(=O)[nH]1 (configuration not stated) (tested in a mixture with another compound)
inactive: [1] 102 % of control | [2] 102 % of control | [3] 101 % of control

CCCCSc1nc2ccc([N+](=O)[O-])cc2s1
inactive: dose: 100.0 mg/kg/injection, schedule: Q04DX002 (ip), vehicle: gum acacia 95 % of control | dose: 200.0 mg/kg/injection, schedule: Q04DX002 (ip), vehicle: gum acacia 95 % of control | dose: 400.0 mg/kg/injection, schedule: Q04DX002 (ip), vehicle: gum acacia 95 % of control

CCC(Cl)COP(=O)(OCC(Cl)CC)C(OP(=S)(OCC(Cl)CC)OCC(Cl)CC)c1ccc(Cl)c(Cl)c1 (configuration not stated)
inactive: dose: 25.0 mg/kg/injection, schedule: Q04DX002 (sc), vehicle: olive oil, sesame oil, peanut oil 123 % of control | dose: 50.0 mg/kg/injection, schedule: Q04DX002 (sc), vehicle: olive oil, sesame oil, peanut oil 108 % of control | dose: 100.0 mg/kg/injection, schedule: Q04DX002 (sc), vehicle: olive oil, sesame oil, peanut oil 118 % of control

C[N+](C)(C)CN1C(=O)c2ccccc2C1=O
inactive: dose: 50.0 mg/kg/injection, schedule: Q01DX009 (ip), vehicle: saline 101 % of control | dose: 100.0 mg/kg/injection, schedule: Q01DX009 (ip), vehicle: saline 97 % of control | dose: 200.0 mg/kg/injection, schedule: Q01DX009 (ip), vehicle: saline 88 % of control

Cc1ccc(NC(=O)OCCOc2ccc(Cl)cc2)c([N+](=O)[O-])c1
inactive: [4] 97 % of control | [5] 87 % of control | [6] 99 % of control | [7] 90 % of control | [8] 104 % of control | [9] 90 % of control

Cc1cc(C)c(NC(=O)CC#N)c(C)c1
inactive: dose: 100.0 mg/kg/injection, schedule: Q04DX002 (ip), vehicle: saline with Tween-80 90 % of control | dose: 200.0 mg/kg/injection, schedule: Q04DX002 (ip), vehicle: saline with Tween-80 90 % of control | dose: 400.0 mg/kg/injection, schedule: Q04DX002 (ip), vehicle: saline with Tween-80 90 % of control

CCOC(=O)c1nc[nH]c1C
inactive: [5] 103 % of control | [10] 98 % of control and 101 % of control | [6] 103 % of control | [7] 100 % of control and 120 % of control | [11] 100 % of control and 103 % of control | [8] 103 % of control | [12] 103 % of control and 119 % of control | [13] 103 % of control | [9] 98 % of control

CCOC(=O)c1ccc(N=CNc2ccc(C(=O)OCC)cc2)cc1
inactive: dose: 12.5 mg/kg/injection, schedule: Q01DX001 (ip), vehicle: other 106 % of control | dose: 12.5 mg/kg/injection, schedule: Q01DX009 (ip), vehicle: saline with Tween-80 100 % of control | dose: 12.5 mg/kg/injection, schedule: Q04DX003 (ip), vehicle: saline with Tween-80 96 % of control | dose: 25.0 mg/kg/injection, schedule: Q01DX001 (ip), vehicle: other 95 % of control | dose: 25.0 mg/kg/injection, schedule: Q01DX009 (ip), vehicle: saline with Tween-80 93 % of control | dose: 25.0 mg/kg/injection, schedule: Q04DX003 (ip), vehicle: saline with Tween-80 95 % of control | dose: 50.0 mg/kg/injection, schedule: Q01DX001 (ip), vehicle: other 93 % of control | dose: 50.0 mg/kg/injection, schedule: Q01DX009 (ip), vehicle: saline with Tween-80 96 % of control | dose: 50.0 mg/kg/injection, schedule: Q04DX003 (ip), vehicle: saline with Tween-80 95 % of control

CCOC(=O)C(C(C)=O)C(CCCCO)C(C(C)=O)C(=O)OCC (configuration not stated)
inactive: [1] 97 % of control | [2] 101 % of control | [3] 94 % of control

CCCCCCCc1nc2nn[nH]c(=O)c2[nH]1
inactive: dose: 100.0 mg/kg/injection, schedule: Q01DX001 (ip), vehicle: saline with Tween-80 94 % of control | dose: 200.0 mg/kg/injection, schedule: Q01DX001 (ip), vehicle: saline with Tween-80 100 % of control | dose: 400.0 mg/kg/injection, schedule: Q01DX001 (ip), vehicle: saline with Tween-80 90 % of control

NC(=S)N/N=C/c1ccccc1N
inactive: dose: 100.0 mg/kg/injection, schedule: Q01DX009 (ip), vehicle: saline with Tween-80 102 % of control | dose: 200.0 mg/kg/injection, schedule: Q01DX009 (ip), vehicle: saline with Tween-80 96 % of control | dose: 400.0 mg/kg/injection, schedule: Q01DX009 (ip), vehicle: saline with Tween-80 96 % of control

COC1/C=C/OC2(C)Oc3c(C)c(O)c4c(O)c(c(/C=N/N5C(C)CN(Cc6ccccc6)CC5C)c(O)c4c3C2=O)NC(=O)C(C)=C/C=C/C(C)C(O)C(C)C(O)C(C)C(OC(C)=O)C1C (configuration not stated)
inactive: [4] 91 % of control | [5] 93 % of control

CCNCCCNCC
inactive: dose: 75.0 mg/kg/injection, schedule: Q01DX001 (ip), vehicle: saline 100 % of control | dose: 150.0 mg/kg/injection, schedule: Q01DX001 (ip), vehicle: saline 93 % of control

O=C(Nc1ccc([N+](=O)[O-])cn1)Nc1cc([N+](=O)[O-])ccc1F
inactive: dose: 100.0 mg/kg/injection, schedule: Q01DX001 (ip), vehicle: Klucel (hydroxypropylcellulose) (HPC) 93 % of control | [5] 94 % of control and 89 % of control | [10] 95 % of control and 102 % of control | dose: 200.0 mg/kg/injection, schedule: Q01DX001 (ip), vehicle: Klucel (hydroxypropylcellulose) (HPC) 100 % of control | [7] 94 % of control and 89 % of control | [11] 92 % of control and 102 % of control | [8] 87 % of control | dose: 400.0 mg/kg/injection, schedule: Q01DX001 (ip), vehicle: Klucel (hydroxypropylcellulose) (HPC) 94 % of control | [12] 100 % of control | [13] 94 % of control and 95 % of control | [9] 92 % of control

CC(=O)Nc1ccc2c(c1)Cc1cc(N=Cc3ccccn3)ccc1-2
inactive: dose: 50.0 mg/kg/injection, schedule: Q04DX003 (ip), vehicle: Klucel (hydroxypropylcellulose) (HPC) 87 % of control | [6] 90 % of control

O=Nc1ccc(O)c2ncccc12
inactive: [6] 92 % of control | [8] 99 % of control
